Data as given in the NIST ThermoML archive (doi:10.1021/acs.jced.9b00170).
Numbers after ± are expanded uncertainties.

Assay: activity coefficient (dimensionless); of the first substance listed, at infinite dilution; xn = mol fraction of the nth substance listed
Settings: 101.33 kPa, Liquid, Chromatography, x1 = 0

Structure (SMILES)	activity coefficient (313.1 K)	activity coefficient (333.1 K)	activity coefficient (353.1 K)
CC1CCCC1 [methylcyclopentane] + CCCC[N+]1(C)CCCC1.O=S(=O)([N-]S(=O)(=O)C(F)(F)F)C(F)(F)F	10.3 ± 0.47	9.08 ± 0.42	8.11 ± 0.37
Cc1ccccc1C [1,2-dimethylbenzene] + CCCCn1cc[n+](C)c1.F[B-](F)(F)F	4.55 ± 0.21	4.51 ± 0.21	4.49 ± 0.2
Cc1ccccc1 [toluene] + CCCCn1cc[n+](C)c1.F[B-](F)(F)F	3.28 ± 0.15	3.33 ± 0.15	3.4 ± 0.15
CCCCCCCCC [nonane] + CCCC[n+]1ccc(C)cc1.F[B-](F)(F)F	182 ± 8.6	153 ± 7.2	131 ± 6.2
CCCCCCCCCC [decane] + CCCC[N+]1(C)CCCC1.O=S(=O)([N-]S(=O)(=O)C(F)(F)F)C(F)(F)F	50.1 ± 2.3	45.3 ± 2.1	40.6 ± 1.9
CC1CCCCC1 [methylcyclohexane] + CCCC[n+]1ccc(C)cc1.F[B-](F)(F)F	41.5 ± 1.9	34.8 ± 1.6	33.1 ± 1.5
CC1CCCC1 [methylcyclopentane] + CCCCn1cc[n+](C)c1.F[B-](F)(F)F	35.6 ± 1.7	30.6 ± 1.4	28.8 ± 1.3
CCCCCCC [heptane] + CCCC[n+]1ccc(C)cc1.F[B-](F)(F)F	84.8 ± 4	73.7 ± 3.5	67.4 ± 3.1
CC1CCCC1 [methylcyclopentane] + CCCC[n+]1ccc(C)cc1.F[B-](F)(F)F	31.3 ± 1.4	26.4 ± 1.2	25.8 ± 1.2
CCCCCC [hexane] + CCCC[N+]1(C)CCCC1.O=S(=O)([N-]S(=O)(=O)C(F)(F)F)C(F)(F)F	12.6 ± 0.58	10.2 ± 0.47	9.5 ± 0.44
CC1CCCCC1 [methylcyclohexane] + CCCCn1cc[n+](C)c1.F[B-](F)(F)F	45.7 ± 2.1	40.5 ± 1.9	35.5 ± 1.6
CCCCCCC [heptane] + CCCCn1cc[n+](C)c1.F[B-](F)(F)F	78.7 ± 3.7	69 ± 3.2	62.2 ± 2.9
Cc1ccccc1 [toluene] + CCCC[n+]1ccc(C)cc1.F[B-](F)(F)F	2.66 ± 0.12	2.69 ± 0.12	2.73 ± 0.12
Cc1ccccc1C [1,2-dimethylbenzene] + CCCC[N+]1(C)CCCC1.O=S(=O)([N-]S(=O)(=O)C(F)(F)F)C(F)(F)F	1.57 ± 0.06	1.59 ± 0.06	1.61 ± 0.06
CCCCCCCCCC [decane] + CCCCn1cc[n+](C)c1.F[B-](F)(F)F	177 ± 8.4	144 ± 6.8	125 ± 5.9
CCCCCC [hexane] + CCCCn1cc[n+](C)c1.F[B-](F)(F)F	56.7 ± 2.6	47.8 ± 2.2	45.2 ± 2.1
CCCCCCCCCC [decane] + CCCC[n+]1ccc(C)cc1.F[B-](F)(F)F	306 ± 14	234 ± 11	223 ± 11
Cc1ccccc1C [1,2-dimethylbenzene] + CCCC[n+]1ccc(C)cc1.F[B-](F)(F)F	4.48 ± 0.2	4.55 ± 0.21	4.59 ± 0.21
CCCCCCCC [octane] + CCCCn1cc[n+](C)c1.F[B-](F)(F)F	92.2 ± 4.3	83.7 ± 3.9	72.4 ± 3.4
CCCCCCC [heptane] + CCCC[N+]1(C)CCCC1.O=S(=O)([N-]S(=O)(=O)C(F)(F)F)C(F)(F)F	17 ± 0.79	15.3 ± 0.71	13.6 ± 0.62
CCCCCCCCC [nonane] + CCCC[N+]1(C)CCCC1.O=S(=O)([N-]S(=O)(=O)C(F)(F)F)C(F)(F)F	33.1 ± 1.5	29.2 ± 1.4	26.8 ± 1.2
CCCCCCCC [octane] + CCCC[N+]1(C)CCCC1.O=S(=O)([N-]S(=O)(=O)C(F)(F)F)C(F)(F)F	23.7 ± 1.1	20.8 ± 0.96	19.1 ± 0.88
CC1CCCCC1 [methylcyclohexane] + CCCC[N+]1(C)CCCC1.O=S(=O)([N-]S(=O)(=O)C(F)(F)F)C(F)(F)F	8.53 ± 0.39	7.52 ± 0.34	6.76 ± 0.31
CCCCCCCC [octane] + CCCC[n+]1ccc(C)cc1.F[B-](F)(F)F	130 ± 6.1	107 ± 5	99.8 ± 4.7
CCCCCC [hexane] + CCCC[n+]1ccc(C)cc1.F[B-](F)(F)F	59.8 ± 2.8	52.4 ± 2.4	49 ± 2.3
Cc1ccccc1 [toluene] + CCCC[N+]1(C)CCCC1.O=S(=O)([N-]S(=O)(=O)C(F)(F)F)C(F)(F)F	1.22 ± 0.04	1.29 ± 0.04	1.37 ± 0.05
